Source: US10549006B2, “High-coverage, low odor malodor counteractant compounds and methods of use” (International Flavors & Fragrances Inc., priority 2014, dated 2020)

Legend:
[1] = Malodor counteracting effect, scale of 0 to 5; settings: 10% in water; scale of 0 to 5, 0=none, 1=minimal effect, 5=the highest possible effect
Method: (ii) Malodor counteracting effect was evaluated using a scale of 0 to 5, where 0=none, 1=minimal effect and 5=the highest possible effect. High coverage of mold/mildew and sweat malodors by Compounds 1-6 (10% in water) was reported in the following: […]

[2] = Percent Reduction of Malodor Intensity; settings: 10% in water
From the text: (iii) Malodor counteracting effect of Compounds 1-6 (10% in water) was further evaluated and their respective “Percent Reduction of Malodor Intensity” was reported in the following: […]

| SMILES | Malodor counteracting effect, Mold/Mildew [1] | Malodor counteracting effect, Sweat [1] | Percent Reduction of Malodor Intensity, Bathroom [2] [%] | Percent Reduction of Malodor Intensity, Mold/Mildew [2] [%] | Percent Reduction of Malodor Intensity, Smoke [2] [%] | Percent Reduction of Malodor Intensity, Sweat [2] [%] |
| --- | --- | --- | --- | --- | --- | --- |
| CC(C)CC1OC(C)CCC1C(C)CC=O (stereo not drawn) [Compound 3, 3-[6-methyl-2-(2-methylpropyl)tetrahydro-2H-pyran-3-yl]butanal] | 4.08 | 4.15 | 85 | 81 | 82 | 86 |
| COC1CCC(C(C)C)CC1 (stereo not drawn) [Compound 1, 1-methoxy-4-(methylethyl)-cyclohexane] | 4.62 | 4.51 | 92 | 88 | 84 | 83 |
| CC(C)C(C)C(C)C(C)O (stereo not drawn) [Compound 5, 3,4,5-trimethyl-hexan-2-ol] | 4.22 | 4.47 | 92 | 80 | 83 | 85 |
| CC(=O)C(C)C(C)C(C)C (stereo not drawn) [Compound 6, 3,4,5-trimethyl-hexan-2-one] | 4.04 | 4.30 | 87 | 90 | 84 | 83 |
| CCOC1C(C)CCCC1C (stereo not drawn) [Compound 2, 2-ethoxy-1,3-dimethyl-cyclohexane] | 4.44 | 4.56 | 90 | 79 | 87 | 90 |
| CCCCCCOC1CCC(C)(C)O1 (stereo not drawn) [Compound 4, 5-hexyloxy-2,2-dimethyl-tetrahydro-furan] | 4.27 | 4.53 | 83 | 74 | 76 | 79 |
